Columns and labels:
Stability in plasma = test: Stability in plasma
Protocol: (§1) Nicotinic acid, nicotinamide and nicotinuric acid are stable in plasma when frozen (at −20±5° C.) for 64 days and after 3 freeze/thaw cycles. When kept at room temperature, nicotinic acid in plasma becomes unstable after 24 hours.

[1] = Long term storage in tubes (glass vs polypropylene); assay type: in vitro ADME
Source text: Most preferred are Vacutainer tubes containing lithium-heparin as an anticoagulant.

[2] = test system: NAD and NADP in whole blood; settings: individuals undergoing niacin therapy; average pretherapy value 175; cited from earlier work
[3] = remark: listed apart in the source
Protocol: as §1

Compound	time stable in plasma when frozen (Stability in plasma; 64 days) [days]	stability in plasma after freeze/thaw cycles (Stability in plasma; plasma)	change in concentration on long term storage in polypropylene tubes [1]	stability in plasma after freeze/thaw cycles (Stability in plasma; plasma, after 3 freeze/thaw cycles)	time stable in plasma when frozen (Stability in plasma; plasma, frozen at −20±5° C.) [days]	time stable in serum when refrigerated (refrigerated) [days]	time stable in serum at room temperature (room temperature) [days]	time after which unstable in plasma at room temperature (Stability in plasma; 24 hours) [h]	average niacin number after niacin supplements [2]	stability in fresh whole blood [3]
NC(=O)c1cccnc1 [nicotinamide]	64	stable	significant changes in the concentration	–	–	–	–	–	–	–
O=C(O)CNC(=O)c1cccnc1 [nicotinuric acid]	–	–	–	stable	64	–	–	–	–	–
O=C(O)c1cccnc1 [nicotinic acid, pyridine 3-carboxylic acid]	64	stable	–	–	–	15	15	24	665	neither nicotinic acid nor the active metabolites were stable

— US20130037709A1, “Method for Clinically Monitoring Niacin and Niacin Metabolites in Serum or Plasma” (priority 2010, published 2013)
